Here are results for 24 molecules from ChEMBL document CHEMBL3751691, “A Journey around the Medicinal Chemistry of Hepatitis C Virus Inhibitors Targeting NS4B: From Target to Preclinical Drug Candidates” (J Med Chem, 2016).

Series [1] relates to Hepatitis C virus. Briefly: Antiviral activity against HCV genotype 1b infected in human Huh7 cells assessed as inhibition of viral replication after 72 hrs by ELISA. In kind it is functional, organism-based, Hepacivirus hominis. As to conditions: Huh-7, 72 h.
The nature of series [2]: Binding affinity to […] by fluorescence assay. On the set-up: species or system Hepacivirus hominis.
Series [3] relates to Hepatitis C virus. Briefly: Antiviral activity against HCV genotype 1b. In kind it is functional, organism-based, Hepacivirus hominis.
A short description of series [4]: Inhibition of HCV NS3/4A protease. On the set-up: species or system Hepacivirus hominis.
For series [5], the system named is Hepatitis C virus. Briefly: Antiviral activity against HCV genotype 1b infected in human Huh7 cells assessed as inhibition of viral replication by luciferase reporter-based viral replicon assay. In kind it is functional, organism-based, Hepacivirus hominis. As to conditions: Huh-7. A general note: In a reporter assay the amount or activity of a reporter protein is the signal.

Series [6] concerns Hepatitis C virus. Briefly: Antiviral activity against HCV genotype 1a infected in human Huh7 cells assessed as inhibition of viral replication by luciferase reporter-based viral replicon assay. In kind it is functional, Hepacivirus hominis. Particulars: subtype 1a, Huh-7.
A short description of series [7]: Ratio of plasma concentration in cynomolgus monkey at 8 hrs to EC50 for antiviral activity against HCV genotype 1b. It is filed as ADME, cell-free.
Series [8] in a line: Ratio of plasma concentration in CRL-CD-BR rat at 8 hrs to EC50 for antiviral activity against HCV genotype 1b. It is filed as ADME, cell-free.
A short description of series [9]: Ratio of drug level in brain to plasma in CRL-CD-BR rat. It is filed as ADME, cell-free. As to conditions: read-out: BPR.
Series [10] in a line: Ratio of drug level in liver to plasma in CRL-CD-BR rat. It is filed as ADME, cell-free.
Series [11] in a line: Ratio of plasma concentration in beagle dog at 8 hrs to EC50 for antiviral activity against HCV genotype 1b. It is filed as ADME, cell-free.

A value given as a limit tells only on which side of the number the result lay.

As a reminder, the EC50 is the midpoint of the concentration-response curve. As usually defined, the Kd is the constant that tells how readily two partners part at equilibrium. With `CCCCc1c(C)nn(-c2nnc3c4ccccc4n(CC)c3n2)c1C`, the EC50 with Hepatitis C virus [1] was found to be 1130 nM. The molecule also displayed a dissociation constant (Kd) in series [2] of 1200 nM.

In the case of `CC(C)(C)c1ccc(C(=O)Nc2sc3c(c2C(N)=O)CCCC3)cc1`, the EC50 with Hepatitis C virus [1] turned out to be 870 nM. In series [2], this molecule showed a Kd of 300 nM.

In general, Ki refers to a measure of affinity in units of concentration, obtained from inhibition or displacement. `CCC[C@H](NC(=O)[C@@H]1[C@H]2CCC[C@H]2CN1C(=O)[C@@H](NC(=O)[C@@H](NC(=O)c1cnccn1)C1CCCCC1)C(C)(C)C)C(=O)C(=O)NC1CC1` gave a concentration for a half-maximal effect (EC50) in the series with Hepatitis C virus [3] of 350 nM. Also, in series [4], the affinity, expressed as Ki, was 7 nM. In general, EC90 refers to the concentration at which the effect reaches the 90% level. For `CC(C)C[C@H]1CN(C(=O)c2cc(-c3ccccc3)on2)[C@@H](CC(C)C)C(=O)N1`, the EC90 with Hepatitis C virus [5] is 1100 nM.

Regarding `CC(C)C[C@H]1CN(C(=O)c2noc(-c3ccccc3)n2)[C@@H](CC(C)C)C(=O)N1`, the EC90 with Hepatitis C virus [5] was determined as 1400 nM. Still for that read-out and setting: the result for `CC(C)C[C@H]1CN(C(=O)c2cc(-c3ccccc3)[nH]n2)[C@@H](CC(C)C)C(=O)N1` reads > 10000 nM; that for `COc1ccc(-c2cc(C(=O)N3C[C@H](CC(C)C)NC(=O)[C@@H]3CC(C)C)no2)cc1`, 1300 nM. The same measure, in the same setting: for `CC(C)C[C@H]1CN(C(=O)c2cc(-c3ccc(Cl)cc3)on2)[C@@H](CC(C)C)C(=O)N1` the value was 290 nM; for `CC(C)C[C@H]1CN(C(=O)c2cc(-c3ccc(F)cc3)on2)[C@@H](CC(C)C)C(=O)N1`, 130 nM; for `CC(C)C[C@H]1CN(C(=O)c2cc(-c3ccc([N+](=O)[O-])cc3)on2)[C@@H](CC(C)C)C(=O)N1`, 2600 nM. Regarding `CCC[C@H]1CN(C(=O)c2cc(-c3ccc(F)cc3)on2)[C@@H](CC(C)C)C(=O)N1`, in the series on Hepatitis C virus [5], the 90% effect concentration (EC90) was 100 nM. Same read-out and setting: the result for `C/C=C/[C@H]1CN(C(=O)c2cc(-c3ccc(F)cc3)on2)[C@@H](CC(C)C)C(=O)N1` reads 60 nM; that for `CC(C)C[C@H]1C(=O)N[C@@H](C2CCCC2)CN1C(=O)c1cc(-c2ccc(F)cc2)on1`, 90 nM; that for `CC(C)C[C@H]1C(=O)N[C@@H](CO)CN1C(=O)c1cc(-c2ccc(F)cc2)on1`, > 10000 nM. Same read-out and setting: for `COC[C@H]1CN(C(=O)c2cc(-c3ccc(F)cc3)on2)[C@@H](CC(C)C)C(=O)N1` the value was > 10000 nM; for `CC(C)C[C@H]1C(=O)N[C@@H](c2ccccc2)CN1C(=O)c1cc(-c2ccc(F)cc2)on1`, 60 nM. Regarding `CC(C)C[C@H]1C(=O)N[C@@H](c2cccs2)CN1C(=O)c1cc(-c2ccc(F)cc2)on1`, the values for the EC90 with Hepatitis C virus [5] and with Hepatitis C virus [6] were 6 nM and 22 nM, respectively. On to `CCc1cc2c(cc1F)c(C#N)c(-c1ccc(S(=O)(=O)N[C@@H](C)C(F)(F)F)cn1)n2-c1ncccn1`, for which the Ratio is on record as 50 in [7], 325 in series [8] and 460 in [11]. The Kp in series [9] was determined as 0.22; in [10] it was 25.

Consider `CC(C)C[C@H]1CN(C(=O)[C@@H]2C[C@H]2c2ccccc2)[C@@H](CC(C)C)C(=O)N1C`, for which, in the series on Hepatitis C virus [5], the concentration for an effect of 90% (EC90) was 8800 nM.

As to `CC(C)C[C@H]1CN(C(=O)[C@@H]2C[C@H]2c2ccccc2)[C@@H](CC(C)C)CN1`, the EC90 in the series on Hepatitis C virus [5] is > 10000 nM. Still for that read-out and setting: the result for `CC[C@H]1C(=O)N[C@@H](CC(C)C)CN1C(=O)[C@@H]1C[C@H]1c1ccccc1` reads > 10000 nM.

Turning to `CC[C@H](C)[C@H]1CN(C(=O)[C@@H]2C[C@H]2c2ccccc2)[C@@H](CC(C)C)C(=O)N1`, the 90% effect concentration (EC90) in the series with Hepatitis C virus [5] is > 10000 nM.

As to `CCC[C@H]1CN(C(=O)[C@@H]2C[C@H]2c2ccccc2)[C@@H](CC(C)C)C(=O)N1`, the EC90 with Hepatitis C virus [5] amounted to 900 nM. Still for that read-out and setting: for `CC(C)C[C@H]1CN(C(=O)/C=C/c2ccccc2)[C@@H](CC(C)C)C(=O)N1` the value was 2300 nM.
